Measurements: publication doi:10.1101/2024.05.07.592940v1 (biorxiv, 2024)
Where a chain is given by its changes, count along the chain named. pIC50, pKd: −log10 of the molar value.

What was measured:
PTPN2 [1] = biological target: T1, PTPN2 (Homo sapiens, UniProt P17706, C216G); assay: microscale thermophoresis; type: binding
T1 sequence (P17706 1-314 C216G): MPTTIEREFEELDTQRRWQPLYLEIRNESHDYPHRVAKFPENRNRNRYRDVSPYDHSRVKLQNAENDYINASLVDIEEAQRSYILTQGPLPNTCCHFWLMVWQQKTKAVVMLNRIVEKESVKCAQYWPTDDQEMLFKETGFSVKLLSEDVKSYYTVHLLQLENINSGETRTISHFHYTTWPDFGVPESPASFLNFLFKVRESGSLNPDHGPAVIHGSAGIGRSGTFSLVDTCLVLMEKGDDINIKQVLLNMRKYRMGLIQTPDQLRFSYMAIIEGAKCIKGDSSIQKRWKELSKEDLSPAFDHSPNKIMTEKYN

PTPN2 [2] = biological target: T2, PTPN2 (Homo sapiens, UniProt P17706); assay: microscale thermophoresis; type: binding
T2 sequence (P17706 1-314): T1 sequence (P17706 1-314 C216G) with G216C

PTP1B = biological target: T3, PTP1B (Homo sapiens, UniProt P18031); assay: pNPP hydrolysis, absorbance […] nm; type: biochemical
T3 sequence (P18031 1-321): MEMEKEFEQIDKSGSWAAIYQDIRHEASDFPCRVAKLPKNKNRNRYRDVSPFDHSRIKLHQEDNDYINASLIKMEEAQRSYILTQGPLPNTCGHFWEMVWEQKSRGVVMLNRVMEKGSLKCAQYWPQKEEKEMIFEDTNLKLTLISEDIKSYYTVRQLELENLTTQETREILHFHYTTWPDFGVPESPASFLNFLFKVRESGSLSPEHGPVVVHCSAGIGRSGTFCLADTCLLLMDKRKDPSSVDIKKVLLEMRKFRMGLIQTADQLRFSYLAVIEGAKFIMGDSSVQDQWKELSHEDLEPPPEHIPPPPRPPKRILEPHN

PTPN2 [3] = biological target: T2, PTPN2; assay: pNPP hydrolysis, absorbance […] nm; type: biochemical

| pKd (PTPN2 [1]) | pKd (PTPN2 [2]) | pIC50 (PTP1B) | pIC50 (PTPN2 [3]) | Structure (SMILES) |
| --- | --- | --- | --- | --- |
| 4.50 | 6.19 | 5.37 | 6.49 | O=c1sn(CCOc2ccc([N+](=O)[O-])cc2)c(=O)n1Cc1ccccc1 [K73] |
|  |  | 5.33 | 5.49 | O=c1sn(-c2cccc3ccccc23)c(=O)n1Cc1ccccc1 [NP-12] |
